Data as given in ChEMBL document CHEMBL1201862, “PubChem BioAssay data set” (2004).
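96-well plates; 48 h exposure; 5 concentrations. Endpoints by linear interpolation between flanking doses. Not reached: highest tested concentration assigned. The concentration for 50% growth inhibition is given as GI50.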 Activity calls are given as the source filed them. No stated cut-off is given here; in the data, active = GI50 up to about 1.1 µM and inactive = higher.

Assays:
Test in all cases: DTP human tumour cell line panel, 48 h
[1] = tested on: DMS-273
[2] = tested on: SN12C
[3] = tested on: NCI-H23
[4] = tested on: SNB-75
[5] = tested on: SW-620
[6] = tested on: SF-268
[7] = tested on: TK-10
[8] = tested on: HL-60
[9] = tested on: CCRF-CEM
[10] = tested on: 786-0
[11] = tested on: KM12
[12] = tested on: SF-295
[13] = tested on: OVCAR-4
[14] = tested on: UO-31
[15] = tested on: SK-MEL-2
[16] = tested on: M14

Measured: GI50

O=C(/C=C/c1ccccc1O)c1ccccc1O
inactive: [1] > 100 µM | [2] > 100 µM | [3] 76.2 µM | [4] > 100 µM | [5] > 100 µM | [6] > 100 µM | [7] > 100 µM | [8] > 100 µM | [9] 5.74 µM | [10] > 100 µM | [11] > 100 µM | [12] 51.6 µM | [13] > 100 µM | [14] > 100 µM | [15] 80.9 µM

COC(=O)C[C@H]1CCC2(OCCO2)[C@]1(C)C(=O)OC
inactive: [1] > 100 µM | [2] > 100 µM | [3] > 100 µM | [4] > 100 µM | [5] > 100 µM | [6] > 100 µM | [7] > 100 µM | [8] > 100 µM | [16] > 100 µM | [9] > 100 µM | [10] > 100 µM | [11] > 100 µM | [12] > 100 µM | [13] > 100 µM | [14] > 100 µM | [15] > 100 µM

CN(C)CCC(=O)/C=C\c1ccccc1
inactive: [1] 16.3 µM | [2] 16.6 µM | [4] 60.1 µM | [5] 18.5 µM | [7] 18.5 µM | [8] 10.6 µM | [16] 16.7 µM | [9] 4.06 µM | [10] 16.3 µM | [11] 15 µM | [12] 20.3 µM | [13] 19.1 µM | [14] 17.6 µM

CC(C)(CN1CCCCC1)C(=O)/C=C/c1ccc(Br)cc1
inactive: [1] 2 µM | [2] 2.57 µM | [3] 2.77 µM | [4] 5.89 µM | [5] 2.56 µM | [6] 2.34 µM | [7] 3.13 µM | [8] 2.4 µM | [16] 2.29 µM | [9] 2.77 µM | [10] 2.15 µM | [11] 3 µM | [12] 5.09 µM | [13] 4.31 µM | [15] 3.69 µM

COc1ccc([C@@H]2CC(=O)NCCCCNCCCN2)cc1
inactive: [1] > 100 µM | [2] > 100 µM | [3] > 100 µM | [4] > 100 µM | [5] > 100 µM | [6] > 100 µM | [7] > 100 µM | [8] > 100 µM | [16] > 100 µM | [9] > 100 µM | [10] > 100 µM | [11] > 100 µM | [12] > 100 µM | [13] > 100 µM | [14] > 100 µM | [15] > 100 µM

CC1(C)OC2C(CCP(=O)(O)O)OC(c3nc(C(N)=O)cs3)C2O1 (configuration not stated)
inactive: [1] > 100 µM | [2] > 100 µM | [3] > 100 µM | [4] > 100 µM | [5] > 100 µM | [6] > 100 µM | [7] > 100 µM | [16] > 100 µM | [9] > 100 µM | [10] > 100 µM | [11] > 100 µM | [13] > 100 µM | [14] > 100 µM | [15] > 100 µM

C[C@]12CC[C@H](OC(=O)Cc3ccc(N(CCCl)CCCl)cc3)CC1CC[C@@H]1C2CC[C@]2(C)NC(=O)CCC12 (some centres not stated)
inactive: [1] 5.64 µM | [2] 5.38 µM | [3] 11.8 µM | [4] 10.1 µM | [5] 9.33 µM | [6] 9.64 µM | [7] 19.9 µM | [8] 2.48 µM | [16] 13.2 µM | [9] 3.54 µM | [10] 11.5 µM | [11] 11 µM | [12] 11.8 µM | [13] 12.2 µM | [14] 29.3 µM | [15] 25.5 µM

CCCCCCCCCCCCCC(=O)OCC1OC(n2cc(F)c(=O)[nH]c2=O)C(N)C(OC(=O)CCCCCCCCCCCCC)C1O (configuration not stated)
inactive: [1] > 100 µM | [2] > 100 µM | [3] > 100 µM | [4] > 100 µM | [5] > 100 µM | [6] > 100 µM | [7] > 100 µM | [8] > 100 µM | [16] > 100 µM | [9] > 10 µM | [10] > 100 µM | [11] > 100 µM | [12] > 100 µM | [13] > 100 µM | [14] > 100 µM | [15] > 100 µM

CC1=NN(C(=O)CC(=O)N(C(=O)c2ccccc2Cl)c2ccc(C)cc2)C(=O)C1/N=N/c1ccc([N+](=O)[O-])cc1 (configuration not stated)
inactive: [1] 48.9 µM | [2] > 100 µM | [3] 47.3 µM | [4] > 43.6 µM | [5] > 39.2 µM | [6] 44.6 µM | [7] 49.5 µM | [8] > 51.9 µM | [16] > 96.2 µM | [9] > 49.8 µM | [10] 29 µM | [11] > 65.5 µM | [12] 58.5 µM | [13] 67.9 µM | [14] 44 µM | [15] > 100 µM
